Source: patent US8815857B2 (Boehringer Ingelheim International GmbH, priority 2011, dated 2014)
≈ marks a conversion by molar mass, not a printed value.

What was measured:
[1] = target: T1, human soluble guanylate cyclase alpha 1 and beta 1 subunits (sGC) stably expressed in Chinese hamster ovary cells (Homo sapiens, UniProt Q02108+Q02153); assay: sGC cellular activator assay: cGMP in CHO cells expressing human sGC, preincubated with ODQ; format: cell-based; settings: 40 microM ODQ preincubation, 30 min at room temperature, presence or absence of 50% human serum not given, read-out: EC50 nM, Activity of Compounds in Cellular Assay
T1 construct: expressed in transfected cells; host or cells: Chinese hamster ovary cells, stably transfected
T1 sequence (Q02108 1-690 partner): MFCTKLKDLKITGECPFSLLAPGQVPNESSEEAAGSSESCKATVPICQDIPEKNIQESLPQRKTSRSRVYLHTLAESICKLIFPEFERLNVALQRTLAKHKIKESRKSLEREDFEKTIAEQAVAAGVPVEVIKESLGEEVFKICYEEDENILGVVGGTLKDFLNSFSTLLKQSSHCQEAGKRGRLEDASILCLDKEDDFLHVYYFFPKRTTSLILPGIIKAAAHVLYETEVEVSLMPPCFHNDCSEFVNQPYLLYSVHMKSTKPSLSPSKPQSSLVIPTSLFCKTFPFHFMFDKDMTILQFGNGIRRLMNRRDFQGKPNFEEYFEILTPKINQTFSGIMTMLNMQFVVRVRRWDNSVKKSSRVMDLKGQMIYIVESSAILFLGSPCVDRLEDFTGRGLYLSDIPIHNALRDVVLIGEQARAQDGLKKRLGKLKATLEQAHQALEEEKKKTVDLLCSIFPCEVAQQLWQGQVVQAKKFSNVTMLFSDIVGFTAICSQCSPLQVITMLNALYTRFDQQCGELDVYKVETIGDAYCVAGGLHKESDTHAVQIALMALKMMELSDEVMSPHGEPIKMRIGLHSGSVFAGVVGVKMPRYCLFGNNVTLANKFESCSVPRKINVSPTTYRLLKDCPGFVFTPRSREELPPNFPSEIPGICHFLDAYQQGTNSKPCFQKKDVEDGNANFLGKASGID
T1 sequence (Q02153 1-619): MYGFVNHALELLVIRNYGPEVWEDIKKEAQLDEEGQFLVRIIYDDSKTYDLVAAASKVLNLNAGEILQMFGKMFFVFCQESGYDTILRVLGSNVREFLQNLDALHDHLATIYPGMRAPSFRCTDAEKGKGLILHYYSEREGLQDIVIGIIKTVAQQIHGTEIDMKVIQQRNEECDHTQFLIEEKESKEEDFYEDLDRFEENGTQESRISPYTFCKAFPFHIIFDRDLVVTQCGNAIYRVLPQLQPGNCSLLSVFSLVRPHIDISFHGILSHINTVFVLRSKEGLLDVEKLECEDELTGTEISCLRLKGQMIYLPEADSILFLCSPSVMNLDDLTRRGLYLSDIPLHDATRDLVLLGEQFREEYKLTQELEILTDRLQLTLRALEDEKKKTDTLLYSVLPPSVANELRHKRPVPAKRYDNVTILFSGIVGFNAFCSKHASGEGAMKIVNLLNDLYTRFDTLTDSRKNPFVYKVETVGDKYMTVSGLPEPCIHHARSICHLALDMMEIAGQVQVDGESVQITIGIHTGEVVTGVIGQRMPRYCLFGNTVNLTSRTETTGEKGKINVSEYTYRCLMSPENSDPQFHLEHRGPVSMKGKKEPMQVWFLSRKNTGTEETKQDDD
Method: The sGC cellular activator assay is performed in the presence and absence of 50% human serum (HS) using Chinese hamster ovary cells that have been stably transfected to express the human soluble guanylate cyclase alpha 1 and beta 1 subunits (sGC). Cells are preincubated with 40 microM 1H-[1,2,4]oxadiazolo[4,3-a]quinoxalin-1-one (ODQ), an sGC inhibitor, for one hour in buffer containing 0.1% bovine serum albumin and 3-isobutyl-1-methylxanthine (IBMX). Concentration response curves are prepared for test compounds in DMSO. An intermediate dilution of the compounds is performed in either buffer containing IBMX or type AB HS containing IBMX. Diluted compounds are added to cells and they are incubated at room temperature for thirty minutes. cGMP is measured using a CisBio homogeneous time resolved fluorescence kit and the EC50 is calculated for each compound.

[2] = Assessment of solubility: HT solubility in pION buffer, UV spectrophotometry; settings: kinetic from dmso stock
[3] = pH 6.8, aqueous buffer, Solubility (pH 6.8), pH 6.8
[4] = pION system solution buffer, pH 4.5, pH 4.5, aqueous buffer, Solubility (pH 4.5), pH 4.5 buffer, 16-19 h incubation, 1.0% DMSO
[5] = pION system solution buffer, pH 7.4, pH 7.4, aqueous buffer, Solubility (pH 7.4), pH 7.4 buffer, 16-19 h incubation, 1.0% DMSO

Structure (SMILES)	EC50 [1] [nM]	solubility [2, 3] [µg/mL]	solubility [2, 4] [µg/mL]	solubility [2, 5] [µg/mL]
Cc1ccc(OCc2ccc(CN3CCOCC3)cc2C)c(-c2csc(N3C[C@@H]4[C@H](C3)[C@@H]4C(=O)O)n2)c1 [Compound 246]	340	54 (≈ 104 µM)	62 (≈ 119 µM)	–
Cc1ccc(OCc2ccc(C(=O)N3CC[C@@H](N(C)C)C3)cc2C)c(-c2csc(N3C[C@H]4CC[C@@H](C3)[C@H]4C(=O)O)n2)c1 [Compound 310]	99	61 (≈ 104 µM)	59 (≈ 100 µM)	–
Cc1ccc(OCc2ccc(C(=O)N3CCOCC3)cc2C#N)c(-c2csc(N3C[C@H]4CC[C@@H](C3)[C@H]4C(=O)O)n2)c1 [Compound 266, 3-(4-{2-[2-cyano-4-(morpholine-4-carbonyl)-benzyloxy]-5-methyl-phenyl}-thiazole-2-yl)-3-aza-bicyclo[3.2.1]octane-8(syn)-carboxylic acid]	42	70 (≈ 122 µM)	0.48 (≈ 0.838 µM)	–
Cc1ccc(OCc2ccc(C(=O)N(C)CCC#N)cc2C)c(-c2csc(N3C[C@H]4CC[C@@H](C3)[C@H]4C(=O)O)n2)c1 [Compound 296]	50	10 (≈ 17.9 µM)	< 0.1	–
Cc1ccc(OCc2ccc(CN3CCS(=O)(=O)CC3)cc2C)c(-c2csc(N3CC4(CC4C(=O)O)C3)n2)c1 (stereo not drawn) [Compound 252]	260	0.2 (≈ 0.352 µM)	< 0.1	–
Cc1ccc(OCc2ccc(CN3CCS(=O)(=O)CC3)cc2C)c(-c2csc(N3CC[C@@H](C(=O)O)[C@H]3C)n2)c1 [Compound 245]	290	48 (≈ 84.2 µM)	3.6 (≈ 6.32 µM)	–
Cc1ccc(OCc2ccc(C(=O)N3CCCC3)cc2C)c(-c2csc(N3C[C@H]4CC[C@@H](C3)[C@H]4C(=O)O)n2)c1 [Compound 299]	8.4	36 (≈ 66 µM)	0.17 (≈ 0.312 µM)	–
Cc1ccc(OCc2ccc(C(=O)N3CCCCC3)cc2C)c(-c2csc(N3CC(CC(=O)O)C3)n2)c1 [Compound 251]	240	56 (≈ 108 µM)	0.15 (≈ 0.289 µM)	–
Cc1ccc(OCc2ccc(C(=O)N3CCC[C@@H](O)C3)cc2C)c(-c2csc(N3C[C@H]4CC[C@@H](C3)[C@H]4C(=O)O)n2)c1 [Compound 312]	35	13 (≈ 22.6 µM)	0.26 (≈ 0.452 µM)	–
Cc1ccc(OCc2ccc(C(=O)N3CCOCC3)cc2C)c(-c2csc(N3CC[C@@H](C(=O)O)[C@H]3C)n2)c1 [Compound 241]	41	72 (≈ 134 µM)	9.2 (≈ 17.2 µM)	–
Cc1ccc(OCc2ccc(CN3CCN(C)C(=O)C3C)cc2C)c(-c2csc(N3CC4CCC(C3)C4C(=O)O)n2)c1 (stereo not drawn) [Compound 290]	4.3	21 (≈ 35.7 µM)	0.69 (≈ 1.17 µM)	–
Cc1ccc(OCc2ccc(C(=O)N3CCCCC3)cc2C)c(-c2csc(N3CC(C4(C(=O)O)CC4)C3)n2)c1 [Compound 260]	590	14 (≈ 25.7 µM)	< 0.1	–
Cc1ccc(OCc2ccc(CN3CCN(C(=O)C4CC4)CC3)cc2C#N)c(-c2csc(N3C[C@H]4CC[C@@H](C3)[C@H]4C(=O)O)n2)c1 [Compound 265]	42	1.9 (≈ 3.04 µM)	0.79 (≈ 1.26 µM)	–
CCN1CCN(Cc2ccc(COc3ccc(C)cc3-c3csc(N4CC5CCC(C4)C5C(=O)O)n3)c(C)c2)CC1=O (stereo not drawn) [Compound 291]	7.6	13 (≈ 22.1 µM)	0.18 (≈ 0.306 µM)	–
Cc1ccc(OCc2ccc(CN3CCOCC3)cc2C#N)c(-c2csc(N3C[C@H]4CC[C@@H](C3)[C@H]4C(=O)O)n2)c1 [Compound 264]	21	12 (≈ 21.5 µM)	21 (≈ 37.6 µM)	–
Cc1ccc(OCc2ccc(C(=O)N(C)CCN(C)C)cc2C)c(-c2csc(N3C[C@H]4CC[C@@H](C3)[C@H]4C(=O)O)n2)c1 [Compound 305]	140	67 (≈ 116 µM)	62 (≈ 107 µM)	–
COC[C@]1(C(=O)O)[C@@H]2CC[C@H]1CN(c1nc(-c3cc(C)ccc3OCc3ccc(C(=O)N4CCCCC4)cc3C)cs1)C2 [Compound 258]	550	8.2 (≈ 13.6 µM)	< 0.1	–
Cc1ccc(OCc2ccc(CN3C[C@@H]4C[C@H]3CO4)cc2C#N)c(-c2csc(N3C[C@H]4CC[C@@H](C3)[C@H]4C(=O)O)n2)c1 [Compound 232]	44	26 (≈ 45.6 µM)	46 (≈ 80.6 µM)	> 54
Cc1ccc(OCc2ccc(CN3CCN(C(=O)C4CC4)CC3)cc2C)c(-c2csc(N3CC[C@@]4(C(=O)O)C[C@H]4C3)n2)c1 [Compound 225]	7.3	0.3 (≈ 0.499 µM)	4.6 (≈ 7.66 µM)	–

Results, then the compound that gave them:

EC50 [1] [nM]	solubility [2, 3] [µg/mL]	solubility [2, 4] [µg/mL]	solubility [2, 5] [µg/mL]	Structure (SMILES)
41	48 (≈ 80 µM)	32 (≈ 53.4 µM)	–	Cc1ccc(OCc2ccc(C(=O)N(C)Cc3nccn3C)cc2C)c(-c2csc(N3C[C@H]4CC[C@@H](C3)[C@H]4C(=O)O)n2)c1 [Compound 339]
110	63 (≈ 112 µM)	1.1 (≈ 1.96 µM)	–	Cc1ccc(OCc2ccc(C(=O)N3CC[C@@H](O)C3)cc2C)c(-c2csc(N3C[C@H]4CC[C@@H](C3)[C@H]4C(=O)O)n2)c1 [Compound 341]
66	34 (≈ 56.7 µM)	< 0.1	> 53	Cc1ccc(OCc2ccc(C(=O)N(C)Cc3ccnn3C)cc2C)c(-c2csc(N3C[C@H]4CC[C@@H](C3)[C@H]4C(=O)O)n2)c1 [Compound 318]
36	5.8 (≈ 10.1 µM)	12 (≈ 21 µM)	–	Cc1ccc(OCc2ccc(CN3CCOCC3C)cc2C#N)c(-c2csc(N3C[C@H]4CC[C@@H](C3)[C@H]4C(=O)O)n2)c1 (stereo partly drawn) [Compound 359]
130	66 (≈ 112 µM)	4 (≈ 6.77 µM)	> 58	Cc1ccc(OCc2ccc(C(=O)N(C)CC(=O)N(C)C)cc2C)c(-c2csc(N3C[C@H]4CC[C@@H](C3)[C@H]4C(=O)O)n2)c1 [Compound 345]
79	6.1 (≈ 10.3 µM)	0.16 (≈ 0.271 µM)	–	Cc1ccc(OCc2ccc(C(=O)N3CCCC(C)(O)C3)cc2C)c(-c2csc(N3C[C@H]4CC[C@@H](C3)[C@H]4C(=O)O)n2)c1 (stereo partly drawn) [Compound 336]
15	36 (≈ 61.9 µM)	< 0.1	–	Cc1ccc(OCc2ccc(C(=O)N3CCC(F)(F)C3)cc2C)c(-c2csc(N3C[C@H]4CC[C@@H](C3)[C@H]4C(=O)O)n2)c1 [Compound 320]
23	56 (≈ 97.3 µM)	< 0.1	–	CO[C@@H]1CCN(C(=O)c2ccc(COc3ccc(C)cc3-c3csc(N4C[C@H]5CC[C@@H](C4)[C@H]5C(=O)O)n3)c(C)c2)C1 [Compound 329]
70	12 (≈ 20.8 µM)	0.23 (≈ 0.399 µM)	–	Cc1ccc(OCc2ccc(C(=O)N3CCC[C@H](O)C3)cc2C)c(-c2csc(N3C[C@H]4CC[C@@H](C3)[C@H]4C(=O)O)n2)c1 [Compound 319]
40	69 (≈ 123 µM)	6.5 (≈ 11.6 µM)	–	Cc1ccc(OCc2ccc(C(=O)N3CCN(C)C(=O)C3)cc2C)c(-c2csc(N3CCC(C(=O)O)CC3)n2)c1 [Compound 349]
3.8	57 (≈ 97.3 µM)	0.42 (≈ 0.717 µM)	–	Cc1ccc(OCc2ccc(CN3CCN(C)C(=O)C3)cc2C#N)c(-c2csc(N3C[C@H]4CC[C@@H](C3)[C@H]4C(=O)O)n2)c1 [Compound 354]
